Source: US9520611B2, “Redox flow battery” (SAMSUNG ELECTRONICS CO., LTD., priority 2013, dated 2016)
Where two headings read alike, the source gives them in different places.

How the values were obtained:
[1] = Cyclic voltammetry of organic electrolytic solution; format: physicochemical; details: unit inferred; Ag/Ag+ reference electrode (0.3 M AgNO3 in acetonitrile), carbon felt working electrode
Excerpt: For the purpose of measurement of cyclic voltammetry, a cell that includes an Ag/Ag^+ electrode prepared by dissolving 0.3 M AgNO3 in an acetonitrile solvent as a reference electrode, a carbon felt as a working electrode, and platinum as a counter electrode was used.
Referring to FIGS. 2A to 2C, the graphs of an electrolyte including a metal-ligand coordination compound show a reversible oxidation/reduction peak.

[2] = Solubility measurement in a non-aqueous polar solvent; format: physicochemical
Method: A density of the solution was measured and calculated in a molar concentration.

[3] = in 50 mL acetonitrile and propylene carbonate 1:1, calculated in a molar concentration, unit not given

Compound | E^0 [1] [V] | Solubility [2] | Solubility [2, 3] | Solubility compared with the compounds that include identical ligands (dipole moment sum 0) [2]
Fe^2+-(NO2-phenanthroline)3 [TFSI]2 [Preparation Example 6] | 0.88 | 1020 mM | – | –
Cc1ccnc(-c2cc(C)ccn2)c1.Cc1ccnc(-c2cc(C)ccn2)c1.O=S(=O)([N-]S(=O)(=O)C(F)(F)F)C(F)(F)F.O=S(=O)([N-]S(=O)(=O)C(F)(F)F)C(F)(F)F.[Fe+2].c1ccc(-c2ccccn2)nc1 [Preparation Example 1, Fe^2+-(4,4′-diMebpy)2 (bpy) [TFSI]2] | 0.56 | – | – | –
Cc1ccnc(-c2cc(C)ccn2)c1.Cc1ccnc(-c2cc(C)ccn2)c1.Cc1ccnc(-c2cc(C)ccn2)c1.O=S(=O)([N-]S(=O)(=O)C(F)(F)F)C(F)(F)F.O=S(=O)([N-]S(=O)(=O)C(F)(F)F)C(F)(F)F.[Fe+2] [Preparation Example 5, Fe^2+-(4,4′-diMe-bpy)3 [TFSI]2] | 0.43 | 0.65 | – | –
O=S(=O)([N-]S(=O)(=O)C(F)(F)F)C(F)(F)F.O=S(=O)([N-]S(=O)(=O)C(F)(F)F)C(F)(F)F.O=[N+]([O-])c1cc2cccnc2c2ncccc12.[Fe+2].c1ccc(-c2ccccn2)nc1.c1ccc(-c2ccccn2)nc1 [Preparation Example 2, Fe^2+-(5-NO2-phenanthroline)(bpy)2 [TFSI]2] | 0.72 | – | – | –
Clc1cc(-c2ccccn2)nc(-c2ccccn2)c1.Clc1cc(-c2ccccn2)nc(-c2ccccn2)c1.O=S(=O)([N-]S(=O)(=O)C(F)(F)F)C(F)(F)F.O=S(=O)([N-]S(=O)(=O)C(F)(F)F)C(F)(F)F.[Fe+2] [Preparation Example 8, Fe^2+-(4′-chloro-terpy)2 [TFSI]2] | 0.78 | – | 0.75 | –
O=S(=O)([N-]S(=O)(=O)C(F)(F)F)C(F)(F)F.O=S(=O)([N-]S(=O)(=O)C(F)(F)F)C(F)(F)F.[Fe+2].c1ccc(-c2ccccn2)nc1.c1ccc(-c2ccccn2)nc1.c1ccc(-c2ccccn2)nc1 [Preparation Example 4, Fe^2+-(bpy)3 [TFSI]2] | 0.68 | – | – | –
O=S(=O)([N-]S(=O)(=O)C(F)(F)F)C(F)(F)F.O=S(=O)([N-]S(=O)(=O)C(F)(F)F)C(F)(F)F.[Fe+2].c1ccc(-c2cccc(-c3ccccn3)n2)nc1.c1ccc(-c2cccc(-c3ccccn3)n2)nc1 [Preparation Example 7, Fe^2+-(terpy)2 [TFSI]2] | 0.7 | – | 1.20 | –
Clc1cc(-c2ccccn2)nc(-c2ccccn2)c1.O=S(=O)([N-]S(=O)(=O)C(F)(F)F)C(F)(F)F.O=S(=O)([N-]S(=O)(=O)C(F)(F)F)C(F)(F)F.[Fe+2].c1ccc(-c2cccc(-c3ccccn3)n2)nc1 [Preparation Example 3, Fe^2+-(terpy)(4′-chloro-terpy) [TFSI]2] | 0.72 | 1.33 | – | higher solubility
